Measurements reported in patent publication US20240307500A1, “SUSTAINED RELEASE FORMULATION COMPOSITION COMPRISING SEMAGLUTIDE OR PHARMACEUTICALLY ACCEPTABLE SALT THEREOF” (PEPTRON, INC., priority 2021, published 2024).

System: SD rats
Experiment: Oral glucose tolerance test (OGTT), hypoglycemic effects after single SC injection
Type: in vivo
Conditions: single SC 0.123 mpk semaglutide
Procedure: An oral glucose tolerance test (OGTT) was performed to confirm hypoglycemic effects of the sustained-release microspheres including semaglutide of the present invention. First, the experiment was conducted by dividing 8-week-old SD rats (18 rats; 6 rats in each group) into 3 groups. It was divided into a negative control group (Control), a positive control group (API) and Example 3 formulation administration group (PT403)), wherein the positive control group (API) was subcutaneously injected once with 0.123 mpk of semaglutide, and the Example 3 formulation administration group (PT403) was injected with the Example 3 formulation subcutaneously with 4 mpk.
After drug administration, total 5 OGTTs (Days 1, 7, 16, 21 and 28) were performed, and 2 g/kg of glucose was orally administered to SD rats fasted for 18 hours. Immediately after glucose administration, and after 15, 30, 60, 90, 120, and 180 minutes, blood was collected from the tail to measure blood glucose.

“N^6,26-{18-[N-(17-carboxyheptadecanoyl)-L-γ-glutamyl]-10-oxo-3, 6, 12, 15-tetraoxa-9, 18-diazaoctadecanoyl}-[8-(2-amino-2-propanoic acid), 34-L-arginine] human glucan-like peptide 1 (7-37) [API]” was tested, and the “hypoglycemic effects (in words)” value was “returned to normal on the 7th day”.
